Earlier results on one compound are cited in article PMC8845813 (Angewandte Chemie (International ed. in English), 2021).

In the data set the test system is LC3A and LC3B LIR-interaction interface.

For the compound `CO[C@@H]1[C@@H](OC(N)=O)[C@@H](O)[C@H](Oc2ccc3c(O)c(NC(=O)c4ccc(O)c(CC=C(C)C)c4)c(=O)oc3c2C)OC1(C)C` [novobiocin], the “potency at LC3A and LC3B LIR-interaction interface” value is listed as “weak potency”.
